Entries after “also recorded” stand apart in the source; their conditions may differ.
Tested on: Escherichia coli (ATCC strain #25404)
Test: High-throughput 96-well liquid outgrowth system for the measurement of bacterial cell killing
Assay type: cell-based
Conditions: for antimicrobial effectiveness: 1 mM FeCl2 10 min; for log kill / antimicrobial effect of the stress inducer after iron pre-incubation: 10 min 1 mM FeCl2 in iso-osmotic saline (130 mM NaCl, pH 5.0), then 10 min a range of concentrations of the stress inducer; for kill by the stress inducer alone: no FeCl2 pre-treatment, 10 min a range of concentrations of the stress inducer, iso-osmotic saline
Description: Classical methods for determining antimicrobial effects involve exposure of cells to disinfectant or antiseptic agents contained in tubes or vials, removal of the agents by centrifugation, washing of the cells to remove disinfectant residues, plating of the cells at a number of dilutions onto culture plates, and enumeration of the resulting colonies. Such methods are inadequate for the purposes of the present invention for two principle reasons, namely, treatment of cells in tubes is too lengthy for the determination of rapid effects (e.g., on the order of 1-5 minutes), and treatment and plating are too laborious for the accurate determination of many different interactions in parallel. […] In these experiments, the assays were prepared as follows, and quadruplicate wells were treated in parallel. A high-throughput 96-well liquid outgrowth system was devised for the measurement of bacterial cell killing. Known numbers of living cells were treated, and unknown numbers of surviving cells were quantified by measuring the rate of liquid outgrowth of the culture relative to a standard curve, as determined by optical density. Cells of Escherichia coli (ATCC strain #25404) were grown to mid-log cell density (absorbance of about 0.1 at 600 nm) in 100 mL of Luria Broth (LB) at 37° C. in Erlenmeyer flasks, and then chilled at 0° C. on ice prior to use. “Treatment” plates were prepared as follows. Chilled cells were aliquoted (approximately 50 μL) into wells of a 96-well filtration plate (Multiscreen® (Millipore Corporation, Bedford, Mass.), having a 0.22 μm hydrophilic Durapore® membrane at the bottom of the wells). The LB medium was removed by vacuum filtration, and the remaining cells were washed with 150 μL of an iso-osmotic solution, either sterile saline solution (SSS, 130 mM NaCl, pH 5.0) or sterile HEPES-buffered saline (HBS, 0.595% HEPES, 0.82% NaCl, pH 7.05). The cells on the treatment plate were then exposed to various free iron (for example, FeCl2) and optional stress inducer treatments as described in the examples delineated below. The FeCl2 solutions were always prepared fresh on the day of use from the anhydrous salt. The cells in a set number of wells were not treated; these untreated cells were serially diluted and used to construct a standard curve. “Reading” plates were made from the treatment plate by adding approximately 130 μL of sterile LB medium to each well of three sterile polycarbonate microtiter plates (Corning). […] of the resuspended cells from all wells of the treatment plate were then transferred to a corresponding well on the reading plates, which were then sealed (for example, using polypropylene sealing mats) and incubated at 37° C. with vigorous shaking. Absorbance readings of turbidity (measured at λ=600 nm) were recorded at approximately 45minute intervals over a time course ranging from about two to about seven hours. Cell densities of the wells containing the treated cells were calculated by comparison to the standard curve. Absorbance readings were performed at 600 nm using a standard microtiter plate absorbance reader (Multiskan® microplate reader by Labsystems, Helsinki, FI). The measurements collected for the treated cells were disregarded unless they fell within a region of linear growth in liquid culture, which was individually determined for each time point reading. Generally, acceptable measurements ranged from about 0.020 to about 0.200 OD units. […] Techniques for calculating slopes and determining concentrations from standard curves are known to one skilled in the art, FeCl2 solutions were prepared from the anhydrous salt, and peroxide (H2O2) dilutions are prepared fresh from a 30% w/w stock solution. Cells were plated as described above, then treated with FeCl2 at concentrations ranging from about 1 μM to about 1.024 mM (in HBS). Cells were exposed to the FeCl2 solution for approximately 10 minutes at room temperature (i.e., iron “pre-treatment”).

Molecule | log kill / antimicrobial effect of the stress inducer after iron pre-incubation | kill by the stress inducer alone | also measured
[Cl][Fe][Cl] [FeCl2] |  |  | antimicrobial effectiveness (then NaCl near the iso-osmotic point (130 mM) (FIG. 4)): minimally effective; antimicrobial effectiveness (then hypo-osmotic (0 mM NaCl) or hyper-osmotic (600 mM) conditions (FIG. 4)): maximally effective; cell killing (10 min 1 mM FeCl2 in iso-osmotic saline, then 10 min in a range of osmolarities of sodium chloride (FIG. 4)): resulted in killing at all osmolarities; FeCl2 pre-treatment concentration that increases the sensitivity of cells to subsequent H2O2 (10 min FeCl2 in HBS, then 10 min H2O2 about 73 μM to about 1 mM (FIG. 2B)): ≥ 16 µM; cell killing (decrease in cell viability) (FeCl2 alone, about 1 μM to about 1.024 mM in iso-osmotic HBS, 10 min room temperature, no hydrogen peroxide (FIG. 2A)): did not result in appreciable cell killing at any concentration; also recorded: relatively small antimicrobial effect; reduction of microbial population (FeCl2 pre-treatment 10 min in HBS, then H2O2 10 min at concentrations as low as 73 μM (FIG. 2A)): reduced the microbial populations significantly
O=P([O-])([O-])[O-].[Na+].[Na+].[Na+] [TSP, trisodium phosphate] | enhanced by pre-incubation of the cells with free iron |  | 
O=C(O)CC(O)(CC(=O)O)C(=O)O [citric acid] | potentiated by pre-incubation with iron |  | 
OCl [hypochlorite] | highly effective | none of the concentrations of bleach used resulted in any kill alone | 
lysozyme | highly effective | none of the concentrations of lysozyme used resulted in any kill alone | 

— patent US20030232040A1, “Biocidal methods and compositions” (SureCide Technologies, LLC, priority 2000, published 2003)
